Results reported in article PMC10545747, “Development of cyclopeptide inhibitors of cGAS targeting protein-DNA interaction and phase separation” (Nature Communications, 2023).
“And” between values parts separate entries of the source, which are not always exact repeats. Equal entries are not always repeated. Square brackets hold non-standard residues; d marks the D form. Peptide text beside a SMILES is read from it.

Biological target: T1, recombinant human cGAS enzyme (hcGAS-ΔN, residues 147–522) (Homo sapiens, UniProt Q8N884)
T1 construct: N-terminally truncated human cGAS (hcGAS-ΔN, residues 147–522); 6xHis-SUMO (N, cleaved yes); made in house; host or cells: Escherichia coli BL21 (DE3)
T1 sequence (Q8N884 147-522, stated change not applied): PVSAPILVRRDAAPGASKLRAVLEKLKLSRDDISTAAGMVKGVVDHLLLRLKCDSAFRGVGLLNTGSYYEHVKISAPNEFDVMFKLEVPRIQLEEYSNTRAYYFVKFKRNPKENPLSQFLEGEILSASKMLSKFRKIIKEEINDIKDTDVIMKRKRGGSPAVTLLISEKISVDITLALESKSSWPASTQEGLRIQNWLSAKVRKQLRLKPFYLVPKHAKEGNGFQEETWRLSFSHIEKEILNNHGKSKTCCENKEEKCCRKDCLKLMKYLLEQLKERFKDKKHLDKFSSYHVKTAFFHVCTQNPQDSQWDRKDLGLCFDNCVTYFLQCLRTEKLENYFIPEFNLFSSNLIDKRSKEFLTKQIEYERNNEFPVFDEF
Assay: RNA-based fluorescent biosensor assay of cGAS activity (2',3'-cGAMP formation), in vitro screening
Assay type: biochemical
Settings: for Remaining activity (%), Fig. 1a source data / remaining activity at 20 µM: 20 μM, replicate values; for remaining activity at 20 µM: read-out: Remaining activity (%), Fig. 1a source data; for inhibition at 20 µM / Inhibition %: peptides screened at 20 μM, Supplementary Table 1 / Fig. S5b; for inhibition at 20 µM: read-out: Inhibition %
Description: To screen direct cGAS inhibitors targeting protein-DNA interface from our developed focused library of macrocyclic peptides, we applied an RNA-based fluorescent biosensor for 2’,3’-cGAMP to detect cGAS activity in vitro (Supplementary Fig. 1a)[49]. The formation of 2’,3’-cGAMP from ATP and GTP was catalyzed by recombinant human cGAS enzyme (hcGAS-ΔN, residues 147–522, Supplementary Fig. 1b) in the presence of ISD (interferon stimulatory DNA, a 45-bp dsDNA), which was readily quantified by the RNA-based fluorescent biosensor and was further confirmed by ion exchange chromatography (Supplementary Fig. 1c). […] Subsequently, a total of 90 macrocyclic peptides were screened at a concentration of 20 μM (Fig. 1a and Supplementary Fig. 1e), and 4 hits (XQ2, XQ8, XQ19, and XQ46) were obtained for further testing at a cut-off of 40% inhibition (Supplementary Table 1). To evaluate the inhibitory effect of the hits against cGAS in cells, we employed real-time quantitative PCR (qPCR) to examine mRNA levels of IFNΒ1 in THP1 cells. The reported cGAS inhibitor RU.521 was used as the positive control, and the non-active peptide XQ28 in the screening assay was used as the negative control. […] The inhibition of cGAS by these hits was further confirmed in the reporter cell line THP1-Lucia ISG (Invivogen) that expresses secreted luciferase induced by an IRF3-inducible ISG54 promoter (Fig. 1c). The discrepancy between the inhibitory effect of the hits in protein and cellular assays may be attributed to their different cellular permeability.
The high-throughput screening (HTS) experiments of cGAS activity are based on the method previously described. To initiate the enzyme reaction, ISD was added to the reaction solution (40 mM Tris-HCl, pH 7.5, 100 mM NaCl, 10 mM MgCl2) containing hcGAS-ΔN, ATP (Sangon Biotech, Cat# A600311) and GTP (Sangon Biotech, Cat# A620332) in a total volume of 20 ul with the final concentration of 0.5 μM, 1.5 μM, 1 mM, 1 mM, respectively, and incubated for 2 h at 37 °C. For HTS experiments, compounds were added to the same reaction conditions as described above with the final concentration of 20 μM. Z’ factors were calculated from three replicates in the 384-well plate.

Compound	Remaining activity (%), Fig. 1a source data	remaining activity at 20 µM [%]	inhibition at 20 µM [%]	Inhibition % [%]	cGAS activity in the biosensor assay
CC(C)C[C@@H]1NC(=O)[C@H](CCCNC(=N)N)NC(=O)[C@H]([C@@H](C)O)NC(=O)[C@@H]2CCCN2C(=O)[C@@H](Cc2ccccc2)NC(=O)[C@H](CC(C)C)NC(=O)[C@H](CCCNC(=N)N)NC(=O)[C@H]([C@@H](C)O)NC(=O)[C@@H]2CCCN2C(=O)[C@@H](C)NC1=O [XQ34, Cyclo (LaPTRLfPTR)] (cyclo(L[dA]PTRL[dF]PTR))	102.306% and 102.914%	103	0	–	–
CC(C)C[C@@H]1NC(=O)[C@H](C)NC(=O)[C@H](C(C)C)NC(=O)[C@H](CCCNC(=N)N)NC(=O)[C@@H](Cc2ccccc2)NC(=O)[C@H](CC(C)C)NC(=O)[C@H](CC(=O)O)NC(=O)[C@H](C(C)C)NC(=O)[C@@H]2CCCN2C(=O)[C@@H](Cc2ccccc2)NC1=O [XQ77, Cyclo (LfPVDLfRVA)] (cyclo(AL[dF]PVDL[dF]RV))	–	–	10	–	–
Cyclo (LwPVDLf(K(Dde))VR) [XQ74]	–	–	–	0	–
Cyclo (LwPTDLf(K(Dde))(V(NMe))R) [XQ62]	–	–	–	0	–
Cyclo (LfRADAfPVR) [XQ83]	–	–	–	0	–
CC(C)C[C@H]1NC(=O)[C@H](Cc2ccccc2)NC(=O)[C@H]2CCCN2C(=O)[C@@H]([C@H](C)O)NC(=O)[C@@H](CCCNC(=N)N)NC(=O)[C@@H](CC(C)C)NC(=O)[C@H](Cc2ccccc2)NC(=O)[C@H]2CCCN2C(=O)[C@@H](C(C)C)NC(=O)[C@@H](CCCNC(=N)N)NC1=O [XQ23, Cyclo (tpFlrvpFlr)] (cyclo(F[dL][dR][dT][dP]F[dL][dR][dV][dP]))	103.183% and 102.415%	103	0	–	–
CC(C)C[C@@H]1NC(=O)[C@H](CCCNC(=N)N)NC(=O)[C@H](C(C)C)NC(=O)[C@@H]2CCCN2C(=O)[C@@H](Cc2ccccc2)NC(=O)[C@H](CC(C)C)NC(=O)[C@H](CC(=O)O)NC(=O)[C@H](CCC(N)=O)NC(=O)[C@@H]2CCCN2C(=O)[C@@H](Cc2ccccc2)NC1=O [XQ68, Cyclo (LfPQDLfPVR)] (cyclo(DL[dF]PVRL[dF]PQ))	–	–	0	–	–
CC(C)C[C@@H]1NC(=O)[C@H](CCCNC(=N)N)NC(=O)[C@H](CC(=O)O)NC(=O)[C@H](C(C)C)NC(=O)[C@@H]2CCCN2C(=O)[C@@H](Cc2ccccc2)NC(=O)[C@H](CC(C)C)NC(=O)[C@H]([C@@H](C)O)NC(=O)[C@@H]2CCCN2C(=O)[C@@H](Cc2ccccc2)NC1=O [XQ65, Cyclo (LfPTLfPVDR)] (cyclo(DRL[dF]PTL[dF]PV))	–	–	0	–	–
CC(C)C[C@@H]1NC(=O)[C@H](CCCNC(=N)N)NC(=O)[C@H](C(C)C)NC(=O)[C@H](CC(=O)O)NC(=O)[C@@H]2CCCN2C(=O)[C@@H](Cc2ccccc2)NC(=O)[C@H](CC(C)C)NC(=O)[C@H]([C@@H](C)O)NC(=O)[C@@H]2CCCN2C(=O)[C@@H](Cc2ccccc2)NC1=O [XQ66, Cyclo (LfPTLfPDVR)] (cyclo(DVRL[dF]PTL[dF]P))	–	–	0	–	–
Cyclo (LaP(T(Bzl))RLaPTR) [XQ41]	101.101% and 103.439% and 102.283%	–	–	0	–
CC(C)C[C@@H]1NC(=O)[C@H](CCCNC(=N)N)NC(=O)[C@H](C(C)C)NC(=O)[C@@H]2CCCN2C(=O)[C@@H](C)NC(=O)[C@H](C)NC(=O)[C@H](CCCNC(=N)N)NC(=O)[C@H](C(C)C)NC(=O)[C@@H]2CCCN2C(=O)[C@@H](C)NC1=O [XQ17, Cyclo (AaPVRLaPVR)] (cyclo(A[dA]PVRL[dA]PVR))	66.7673% and 68.063%	67.2	32	–	–
CC(C)C[C@@H]1NC(=O)[C@H](CCCNC(=N)N)NC(=O)[C@H]([C@@H](C)O)NC(=O)[C@@H]2CCCN2C(=O)[C@@H](Cc2ccccc2)NC(=O)[C@H](Cc2ccccc2)NC(=O)[C@H](CCCNC(=N)N)NC(=O)[C@H]([C@@H](C)O)NC(=O)[C@@H]2CCCN2C(=O)[C@@H](Cc2ccccc2)NC1=O [XQ29, Cyclo (FfPTRLfPTR)] (cyclo(F[dF]PTRL[dF]PTR))	92.9858% and 93.5702%	92.7	7	–	–
CC(C)[C@@H]1NC(=O)[C@@H]2CCCN2C(=O)[C@@H](Cc2ccccc2)NC(=O)[C@H](C)NC(=O)[C@H](CCCNC(=N)N)NC(=O)[C@H](C)NC(=O)[C@@H]2CCCN2C(=O)[C@@H](Cc2ccccc2)NC(=O)[C@H](C)NC(=O)[C@H](CCCNC(=N)N)NC1=O [XQ18, Cyclo (AfPARAfPVR)] (cyclo(ARA[dF]PVRA[dF]P))	93.9479% and 95.218%	94.3	5	–	–
Cyclo (Lf(Hyp)TDAfPTR) [XQ86]	–	–	–	0	–
CC(C)[C@@H]1NC(=O)[C@H](C)NC(=O)[C@@H](Cc2ccccc2)NC(=O)[C@H](C)NC(=O)[C@H](CCCNC(=N)N)NC(=O)[C@H](C(C)C)NC(=O)[C@@H]2CCCN2C(=O)[C@@H](Cc2ccccc2)NC(=O)[C@H](C)NC(=O)[C@H](CCCNC(=N)N)NC1=O [XQ20, Cyclo (AfAVRAfPVR)] (cyclo(AVRA[dF]PVRA[dF]))	88.8732% and 88.6928%	89.1	11	–	–
CC(C)C[C@@H]1NC(=O)[C@H](CCCNC(=N)N)NC(=O)[C@H](C(C)C)NC(=O)[C@@H]2CCCN2C(=O)[C@@H](Cc2ccccc2)NC(=O)[C@H](CC(C)C)NC(=O)[C@H]([C@@H](C)O)NC(=O)[C@@H]2CCCN2C(=O)[C@@H](Cc2ccccc2)NC(=O)[C@H](CC(=O)O)NC1=O [XQ63, Cyclo (LDfPTLfPVR)] (cyclo(D[dF]PTL[dF]PVRL))	–	–	0	–	–
CC(C)C[C@@H]1NC(=O)[C@H](C)NC(=O)[C@H](C(C)C)NC(=O)[C@@H]2CCCN2C(=O)[C@@H](Cc2ccccc2)NC(=O)[C@H](CC(C)C)NC(=O)[C@H](CCCNC(=N)N)NC(=O)[C@H](C(C)C)NC(=O)[C@@H]2CCCN2C(=O)[C@@H](CCCNC(=N)N)NC1=O [XQ56, Cyclo (LrPVRLfPVA)] (cyclo(AL[dR]PVRL[dF]PV))	–	–	0	–	–
CC(C)C[C@@H]1NC(=O)[C@H](CC(=O)O)NC(=O)[C@H](CCCNC(=N)N)NC(=O)[C@H](C(C)C)NC(=O)[C@@H]2CCCN2C(=O)[C@@H](Cc2ccccc2)NC(=O)[C@H](CC(C)C)NC(=O)[C@H]([C@@H](C)O)NC(=O)[C@@H]2CCCN2C(=O)[C@@H](Cc2ccccc2)NC1=O [XQ64, Cyclo (DLfPTLfPVR)] (cyclo(DL[dF]PTL[dF]PVR))	–	–	0	–	–
CC(C)C[C@H]1NC(=O)[C@H](Cc2ccccc2)NC(=O)[C@H]2CCCN2C(=O)[C@@H]([C@H](C)O)NC(=O)[C@@H](CCCNC(=N)N)NC(=O)[C@@H](CC(C)C)NC(=O)[C@H](Cc2ccccc2)NC(=O)[C@H]2CCCN2C(=O)[C@@H]([C@H](C)O)NC(=O)[C@@H](CCCNC(=N)N)NC1=O [XQ24, Cyclo (tpFlrtpFlr)] (cyclo(F[dL][dR][dT][dP]F[dL][dR][dT][dP]))	93.4684% and 95.0442%	94.2	5	–	–
Cyclo ((hex)DLfPVR(hex)) [XQ69]	–	–	–	0	–
N=C(N)NCCC[C@@H]1NC(=O)[C@@H]2CCCN2C(=O)[C@H](Cc2ccccc2)NC(=O)[C@H](CCCNC(=N)N)NC(=O)[C@@H]2CCCN2C(=O)[C@@H](Cc2ccccc2)NC1=O [XQ27, Cyclo (RfPRFP)] (cyclo(FPR[dF]PR))	109.194% and 109.746%	107	0	–	–
CC(C)C[C@@H]1NC(=O)[C@H](CCCNC(=N)N)NC(=O)[C@H]([C@@H](C)O)NC(=O)[C@@H]2CCCN2C(=O)[C@@H](C)NC(=O)[C@H](CC(C)C)NC(=O)[C@H](CCCNC(=N)N)NC(=O)[C@H]([C@@H](C)O)NC(=O)[C@@H]2CCCN2C(=O)[C@@H](C)NC1=O [XQ40, Cyclo (LaPTRLaPTR)] (cyclo(L[dA]PTRL[dA]PTR))	115.337% and 116.119%	117	0	–	–
Cyclo (LfPVDAfPVR) [XQ81]	–	–	–	0	–
CCN(CC)CCCC(C)Nc1c2ccc(Cl)cc2nc2ccc(OC)cc12 (centres unmarked) [quinacrine, reference compound]	–	–	–	–	inhibited the activity of cGAS in a dose-dependent manner
Cyclo (LwPTD(Nle)f(K(Dde))VR) [XQ73]	–	–	–	0	–
